Experiment: xn = mol fraction of the nth substance listed

COCCO + CC(C)O
303.15 K, 101.3 kPa
Settings	viscosity [mPa·s]
x1 = 0.0989	1.54
x1 = 0.1681	1.426
x1 = 0.3537	1.24
x1 = 0.388	1.222
x1 = 0.5422	1.196
x1 = 0.5877	1.202
x1 = 0.7821	1.268
x1 = 0.8235	1.288
x1 = 0.8851	1.324

CCCC(C)O (centres undefined) + CCCCCCC
101 kPa
Settings	viscosity [mPa·s]
293.8 K, x1 = 0.5	0.771
295.1 K, x1 = 0.051	0.477

CC(O)=S + c1ccccc1
298.1 K, 101 kPa
Settings	viscosity [mPa·s]
x1 = 0.2	0.584
x1 = 0.4	0.584
x1 = 0.5	0.589
x1 = 0.6	0.599
x1 = 0.8	0.631

CCCC(=O)O + ClC(Cl)(Cl)Cl
298.15 K, 101 kPa
Settings	viscosity [mPa·s]
x1 = 0.08	0.911
x1 = 0.16	0.925
x1 = 0.24	0.945
x1 = 0.3	0.966
x1 = 0.54	1.079
x1 = 0.64	1.142
x1 = 0.72	1.201
x1 = 0.87	1.331

CCCC(C)O (centres undefined) + CC(C)OC(C)C
viscosity [mPa·s], 100 kPa
Settings	x2 = 0.0801	x2 = 0.1597	x2 = 0.2402	x2 = 0.3503	x2 = 0.4399	x2 = 0.5598	x2 = 0.6493	x2 = 0.7372	x2 = 0.8487	x2 = 0.9379
293.15 K	3.43	2.94	2.52	2.08	1.76	1.386	1.13	0.9	0.64	0.45
298.15 K	2.87	2.44	2.1	1.74	1.48	1.176	0.969	0.783	0.57	0.42
303.15 K	2.42	2.06	1.78	1.49	1.286	1.04	0.864	0.705	0.518	0.389
308.15 K	2.04	1.74	1.5	1.26	1.09	0.89	0.75	0.62	0.47	0.36
313.15 K	1.71	1.45	1.26	1.06	0.922	0.755	0.64	0.536	0.414	0.33
318.15 K	1.42	1.2	1.05	0.89	0.78	0.642	0.547	0.467	0.375	0.306
323.15 K	1.19	1.02	0.89	0.76	0.667	0.554	0.477	0.41	0.33	0.28

O=P([O-])(O)O.[Li+] + O
viscosity [mPa·s], 101 kPa
Settings	x1 = 0.0018	x1 = 0.0054	x1 = 0.0089	x1 = 0.012	x1 = 0.016
298.15 K	0.9076	1.021	1.099	1.209	1.318
303.15 K	0.8338	0.9078	0.9891	1.084	1.211
308.15 K	0.7493	0.8183	0.888	0.9579	1.028

CCCC(=O)O + c1ccncc1
293.15 K, 101 kPa
Settings	viscosity [mPa·s]
x2 = 0.152	3.474
x2 = 0.256	3.89
x2 = 0.429	3.36
x2 = 0.528	2.674
x2 = 0.642	1.996
x2 = 0.818	1.29

C[N+](C)(C)C[C@H](O)CC(=O)[O-] + NC(N)=O
Settings	viscosity [mPa·s]
298.15 K, 101.33 kPa, x2 = 0.7	553

CCCCBr + Cc1ccc(C)cc1
308.15 K, 101 kPa
Settings	viscosity [mPa·s]
x2 = 0.1002	0.5174
x2 = 0.2	0.5139
x2 = 0.2996	0.5114
x2 = 0.3997	0.5104
x2 = 0.4329	0.5092
x2 = 0.6161	0.5084
x2 = 0.7006	0.5095
x2 = 0.7996	0.5107
x2 = 0.8946	0.5121

CCCCNCCCC + CCC(=O)O
viscosity [mPa·s], 101.33 kPa
Settings	293.15 K	293.5 K	298.15 K	303.15 K	308.15 K	313.15 K	318.15 K	323.15 K
x2 = 0.2	–	2.45	2.21	2.05	1.87	1.69	1.54	1.44
x2 = 0.4	20.21	–	15.81	12.24	9.94	7.97	6.42	5.61
x2 = 0.5	–	–	–	48.04	35.66	27.31	21.32	17.49
x2 = 0.6	109.3	–	80.86	64.2	49.41	39.46	31.87	25.8
x2 = 0.7	125.9	–	94.32	72.81	54.5	42.04	34.15	27.7
x2 = 0.75	139.3	–	102.5	74.31	58.19	44.26	35.31	27.67
x2 = 0.8	16.74	–	14.24	11.85	10.22	8.75	7.62	6.98

CC[N+](CC)(CC)CC.[OH-] + CC(=O)N(C)C
viscosity [mPa·s], 101 kPa
Settings	298.15 K	303.15 K	308.15 K	313.15 K
x1 = 0.0216	1.19	1.11	1.03	0.96
x1 = 0.0663	1.64	1.54	1.42	1.32
x1 = 0.1133	2.08	1.95	1.79	1.67
x1 = 0.1628	2.49	2.33	2.16	2.01
x1 = 0.215	2.83	2.66	2.49	2.33
x1 = 0.2422	2.99	2.81	2.64	2.47
x1 = 0.2988	3.28	3.09	2.89	2.72
x1 = 0.3899	3.63	3.43	3.23	3.04
x1 = 0.4894	3.89	3.69	3.47	3.27
x1 = 0.5986	4.08	3.87	3.63	3.44
x1 = 0.7188	4.24	4.04	3.77	3.59
x1 = 0.806	4.39	4.18	3.91	3.76
x1 = 0.8995	4.59	4.38	4.11	3.95

COCCO + CCCCO
viscosity [mPa·s]
Settings	298.15 K	308.15 K	313.15 K	318.15 K
100 kPa, x1 = 0.1009	2.27	–	1.6	–
100 kPa, x1 = 0.2003	2.06	–	1.48	–
100 kPa, x1 = 0.3003	1.91	–	1.39	–
100 kPa, x1 = 0.4012	1.8	–	1.32	–
100 kPa, x1 = 0.5008	1.72	–	1.27	–
100 kPa, x1 = 0.6012	1.65	–	1.24	–
100 kPa, x1 = 0.7006	1.61	–	1.21	–
100 kPa, x1 = 0.7998	1.58	–	1.19	–
100 kPa, x1 = 0.9	1.56	–	1.18	–
101 kPa, x1 = 0.09765	2.212	1.688	–	1.266
101 kPa, x1 = 0.1958	2.061	1.583	–	1.212
101 kPa, x1 = 0.2945	1.948	1.49	–	1.172
101 kPa, x1 = 0.3937	1.88	1.355	–	1.117
101 kPa, x1 = 0.4934	1.813	1.304	–	1.063
101 kPa, x1 = 0.5937	1.767	1.248	–	1.046
101 kPa, x1 = 0.6944	1.723	1.219	–	1.036
101 kPa, x1 = 0.7957	1.674	1.191	–	0.996
101 kPa, x1 = 0.8976	1.622	1.179	–	0.9925
101.33 kPa, x1 = 0.1184	–	1.694	–	–
101.33 kPa, x1 = 0.2345	–	1.551	–	–
101.33 kPa, x1 = 0.3377	–	1.443	–	–
101.33 kPa, x1 = 0.4484	–	1.361	–	–
101.33 kPa, x1 = 0.5476	–	1.305	–	–
101.33 kPa, x1 = 0.6312	–	1.265	–	–
101.33 kPa, x1 = 0.7363	–	1.229	–	–
101.33 kPa, x1 = 0.9104	–	1.195	–	–

FC(F)(Cl)Cl + CC(F)F
101 kPa, x1 = 0.606
Settings	viscosity [mPa·s]
295.47 K	0.199
311.17 K	0.1745

CCOC(=O)C(=O)OCC + Cc1ccccc1
viscosity [mPa·s], 101 kPa
Settings	303.15 K	313.15 K	323.15 K
x1 = 0.0804	0.5603	–	–
x1 = 0.1006	0.581	0.516	0.465
x1 = 0.1644	0.5912	–	–
x1 = 0.2019	0.651	0.578	0.514
x1 = 0.2523	0.6413	–	–
x1 = 0.3013	0.725	0.646	0.571
x1 = 0.3443	0.7072	–	–
x1 = 0.4005	0.811	0.712	0.628
x1 = 0.4403	0.7809	–	–
x1 = 0.502	0.907	0.788	0.691
x1 = 0.5414	0.8798	–	–
x1 = 0.6024	1.028	0.887	0.77
x1 = 0.6481	1.007	–	–
x1 = 0.6988	1.151	0.988	0.855
x1 = 0.7597	1.167	–	–
x1 = 0.7971	1.289	1.095	0.943
x1 = 0.8762	1.38	–	–
x1 = 0.8936	1.442	1.222	1.044

COCCO + CCCCCO
viscosity [mPa·s]
Settings	298.15 K	308.15 K	318.15 K
101 kPa, x1 = 0.114	2.939	2.12	1.659
101 kPa, x1 = 0.2246	2.569	1.894	1.525
101 kPa, x1 = 0.3317	2.346	1.724	1.427
101 kPa, x1 = 0.4357	2.155	1.543	1.279
101 kPa, x1 = 0.5367	2.007	1.442	1.234
101 kPa, x1 = 0.6347	1.894	1.413	1.222
101 kPa, x1 = 0.7299	1.8	1.306	1.208
101 kPa, x1 = 0.8225	1.72	1.254	1.035
101 kPa, x1 = 0.9125	1.686	1.249	1.036
101.33 kPa, x1 = 0.1741	–	1.966	–
101.33 kPa, x1 = 0.2604	–	1.804	–
101.33 kPa, x1 = 0.3455	–	1.665	–
101.33 kPa, x1 = 0.4796	–	1.511	–
101.33 kPa, x1 = 0.6102	–	1.385	–
101.33 kPa, x1 = 0.7245	–	1.309	–
101.33 kPa, x1 = 0.78	–	1.284	–
101.33 kPa, x1 = 0.9014	–	1.23	–

CCCC(=O)O + C1CCOC1
298.15 K, 101 kPa
Settings	viscosity [mPa·s]
x2 = 0.1195	1.45
x2 = 0.234	1.43
x2 = 0.3437	1.34
x2 = 0.4489	1.212
x2 = 0.5499	1.068
x2 = 0.647	0.9205
x2 = 0.7403	0.7856
x2 = 0.8301	0.6588
x2 = 0.9166	0.545

From the CheMixHub viscosity set
